Experimental findings from patent publication US20250195503A1, “TETRACYCLIC COMPOUND AND USE THEREOF” (SHANGHAI SHIJIANG BIOTECHNOLOGY TECHNOLOGY CO., LTD., priority 2022, published 2025) are described below.

One may read the IC50 as the point on the concentration scale where inhibition reaches its midpoint. High values mean weaker potency, low ones greater potency.

Structures are written as SMILES.

The test system of one assay is sh-DNMT1 NCI-H82 cell. Description: Inhibitory effect (IC50) on sh-DNMT1 NCI-H82 cell, Promega CellTiter-Glo kit. To be noted: Homo sapiens, DNMT1 knocked down NCI-H82 cell. Type of assay: cell-based. A general note: In ATP-based viability assays light output follows the ATP content of the culture.
A further assay relates to mPTP-inactive Daoy cell. Description: Inhibitory effect (IC50) on mPTP-inactive Daoy cell (PPIF shRNA), Promega CellTiter-Glo kit. Type of assay: cell-based. To be noted: Homo sapiens, Daoy cell transfected with virus vector carrying PPIF shRNA.
Another assay deals with Con-NCI-H82 cell. Description: Inhibitory effect (IC50) on Con-NCI-H82 cell, Promega CellTiter-Glo kit. It is filed as cell-based. Conditions: Homo sapiens, NCI-H82 cell transfected with empty virus vector.
In a further assay the test system is mPTP-active Daoy cell. Description: Inhibitory effect (IC50) on mPTP-active Daoy cell, Promega CellTiter-Glo kit. Conditions: Homo sapiens, Daoy cell transfected with empty virus vector without PPIF shRNA. Type of assay: cell-based.
The subject of the next assay is ov-NNMT NCI-H82 cell. The assay can be described thus: Inhibitory effect (IC50) on ov-NNMT NCI-H82 cell, Promega CellTiter-Glo kit. Type of assay: cell-based. To be noted: Homo sapiens, NNMT protein overexpressed NCI-H82 cell.
A further assay concerns Daoy cell. The assay can be described thus: Mitochondria membrane potential difference by TMRM in Daoy cell. It is filed as cell-based, human. To be noted: CsA −, H2O2 +. An excerpt: The mitochondria permeability transition pore (mPTP) was a non-specific channel on the inner membrane of mitochondria, which could allow small molecules with molecular less than 1.5KD to pass freely, and its activity was affected by peroxides (such as H2O2), pH and calcium ions in mitochondria. […] For cells with active mitochondria permeability transition pore, adding peroxide (such as H2O2) could increase the activity of mitochondria permeability transition pore, resulting in a decrease in mitochondria membrane potential.

Assay [1] relates to Daoy cell transfected with virus vector carrying shRNA that could specificly induce the degradation of PPIF mRNA. Description: Mitochondria membrane potential difference by TMRM in Daoy cell transfected with virus vector carrying PPIF shRNA. It is filed as cell-based, human. Conditions: CsA −, H2O2 +.
The subject of assay [2] is Daoy cell transfected with empty virus vector without carrying shRNA. The assay can be described thus: Mitochondria membrane potential difference by TMRM in Daoy cell transfected with empty virus vector. It is filed as cell-based, human. Conditions: CsA −, H2O2 +.

For `CCCCC1c2c(ccc(OC)c2OC)C=C2c3cc4c(cc3CCN21)OCO4` (stereo not shown) [compound AB31875], the IC50 in the assay on sh-DNMT1 NCI-H82 cell amounted to 12.3 µM; in the assay on mPTP-inactive Daoy cell, 6.25 µM; with Con-NCI-H82 cell, 3.27 µM; with mPTP-active Daoy cell it was 14.6 µM; in the assay on ov-NNMT NCI-H82 cell it was 10.1 µM.
Taken in the same sequence, the figures for `CCC1c2c(ccc(OC)c2OC)C=C2c3cc4c(cc3CCN21)OCO4` (stereo not shown) [compound AB31883] were 5.98 µM, 2.45 µM, 2.18 µM, 5.64 µM and 5.56 µM.
With `COc1ccc2c(c1OC)C(C1CCCC1)N1CCc3cc4c(cc3C1=C2)OCO4` (stereo not shown) [compound AB31900], the IC50 is 6.58 µM in the assay on sh-DNMT1 NCI-H82 cell, 2.56 µM in the assay with mPTP-inactive Daoy cell and 5.37 µM in the assay with mPTP-active Daoy cell.
Regarding `COc1ccc2c(c1OC)C(C(C)C)N1CCc3cc4c(cc3C1=C2)OCO4` (stereo not shown) [compound AB31885], the 50% inhibitory concentration (IC50) came to 5.99 µM in the assay with sh-DNMT1 NCI-H82 cell; 3.17 µM in the assay with mPTP-inactive Daoy cell; 1.12 µM in the assay with Con-NCI-H82 cell; 6.43 µM in the assay with mPTP-active Daoy cell; 4.13 µM with ov-NNMT NCI-H82 cell.
As to `COc1ccc2c(c1OC)C(C)N1CCc3cc4c(cc3C1=C2)OCO4` (stereo not shown) [compound AB31886], the IC50 in the assay with sh-DNMT1 NCI-H82 cell came out at 9.66 µM; in the assay on mPTP-inactive Daoy cell, 5.74 µM; in the assay with Con-NCI-H82 cell it was 3.22 µM; in the assay on mPTP-active Daoy cell it was 14.3 µM; with ov-NNMT NCI-H82 cell, 8.48 µM.
As for `COc1ccc2c(c1OC)C(C(F)(F)F)N1CCc3cc4c(cc3C1=C2)OCO4` (stereo not shown) [compound AB35403], the IC50 turned out to be 24.2 µM in the assay on sh-DNMT1 NCI-H82 cell; 28.6 µM in the assay with mPTP-inactive Daoy cell; 6.91 µM with Con-NCI-H82 cell; 60.1 µM in the assay with mPTP-active Daoy cell; 16.8 µM in the assay on ov-NNMT NCI-H82 cell.
As to `COc1ccc2c(c1OC)CN1CCc3cc4c(cc3C1=C2)OCO4` [compound AB31713], the IC50 came out at 14.6 µM in the assay on sh-DNMT1 NCI-H82 cell, 12.5 µM in the assay on mPTP-inactive Daoy cell and 25 µM in the assay on mPTP-active Daoy cell.
On to `COc1ccc2c(c1OC)C(C1CCCCC1)N1CCc3cc4c(cc3C1=C2)OCO4` (stereo not shown) [compound AB31893], for which the IC50 was 2.5 µM with mPTP-inactive Daoy cell and 5.14 µM with mPTP-active Daoy cell.
As for `C=CCC1c2c(ccc(OC)c2OC)C=C2c3cc4c(cc3CCN21)OCO4` (stereo not shown) [compound AB31891], the IC50 in the assay with sh-DNMT1 NCI-H82 cell came out at 5.73 µM; with mPTP-inactive Daoy cell it was 3.12 µM; with Con-NCI-H82 cell, 2.06 µM; in the assay with mPTP-active Daoy cell it was 6.22 µM; in the assay with ov-NNMT NCI-H82 cell, 6.55 µM.
Taken in the same sequence, the figures for `CCCCCCC1c2c(ccc(OC)c2OC)C=C2c3cc4c(cc3CCN21)OCO4` (stereo not shown) [compound AB35435] were 3.65 µM, 0.69 µM, 0.72 µM, 1.32 µM and 2.66 µM.
As for `COc1ccc2c(c1OC)C(C(Cl)(Cl)Cl)N1CCc3cc4c(cc3C1=C2)OCO4` (stereo not shown) [compound AB31714], the IC50 turned out to be 14.3 µM in the assay with sh-DNMT1 NCI-H82 cell; 12.5 µM with mPTP-inactive Daoy cell; 2.33 µM in the assay with Con-NCI-H82 cell; 26.7 µM in the assay with mPTP-active Daoy cell; 7.04 µM in the assay with ov-NNMT NCI-H82 cell.
Taken in the same sequence, the figures for `C=CCCC1c2c(ccc(OC)c2OC)C=C2c3cc4c(cc3CCN21)OCO4` (stereo not shown) [compound AB31882] were 18.8 µM, 9.22 µM, 5.16 µM, 19.3 µM and 11.6 µM.
Regarding `OO` [H2O2], the “Relative TMRM signal intensity (%), mean value” is reported as 82% in the assay on Daoy cell, 95% in assay [1] and 79% in assay [2].
With `CCCC1c2c(ccc(OC)c2OC)C=C2c3cc4c(cc3CCN21)OCO4` (stereo not shown) [compound AB31884], the IC50 with sh-DNMT1 NCI-H82 cell was found to be 8.64 µM; with mPTP-inactive Daoy cell it was 2.71 µM; in the assay on Con-NCI-H82 cell, 2.31 µM; in the assay on mPTP-active Daoy cell it was 5.76 µM; in the assay on ov-NNMT NCI-H82 cell, 6.32 µM.
